Measured values reported in patent US20240148745A1, “COMPOUNDS FOR USE IN PROGRESSIVE MULTIPLE SCLEROSIS” (FONDAZIONE CENTRO SAN RAFFAELE, priority 2021, published 2024).

How the values were obtained:
[1] = system: LPC lesions of MBP-deficient shiverer spinal cords transplanted with human iPSC-derived oligodendrocytes; test: Remyelination in LPC lesions of shiverer spinal cords grafted with hiOLs; type: in vivo, mouse; conditions: gavage during 8 or 10 wkpg
Description: FIG. 48. In vivo results of Bavisant treatment on remyelination in LPC lesions of MBP-deficient shiverer spinal cords transplanted with human iPSC-derived oligodendrocytes. […] Exogenous myelin is detected by MBP and endogenous myelin by MOG.

[2] = system: mouse cortical neurons; test: Morphological integrity evaluation, NMDA 8 μM (MAP2 neurite length and branching); type: cell-based; conditions: 3 h pre-treatment, NMDA 8 μM 24 h; Z>0.5 criteria
Procedure, shortened: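 Mouse cortical neurons (14 DIV) pre-treated 3 h with compounds, then exposed 24 h to 8 μM NMDA; fixed, MAP2 immunostained with DAPI. Total neurite length and non-trunk branch number from 15 images/well, triplicates, converted to plate-based Z-scores; NAC positive, staurosporine and NMDA negative controls.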

Structure (SMILES)	remyelination potential of grafted hiOLs (MBP) [1]	preservation of neurite length and network integrity (branching) [2]
O=C(c1ccc(CN2CCOCC2)cc1)N1CCN(C2CC2)CC1 [Bavisant]	has the tendency to promote the remyelination potential of hiOLs	–
NCCCC[C@H](NC(=O)[C@@H](Cc1cc(Br)c(O)c(Br)c1)NC(=O)N1CCC(N2Cc3ccccc3NC2=O)CC1)C(=O)N1CCN(c2ccncc2)CC1 [Olcegepant]	–	preserved both neurite length and the network integrity (branching)
